Test results: paper PMC4860888 (Theranostics, 2016)

Key:
[1] = system: AK7 murine mesothelioma cells; type: in vivo, C57Bl/6 mice; conditions: decitabine 4 µg/g i.p. days 7 and 9
[2] = system: HDAC; conditions: cited from earlier work

Row | Structure (SMILES) | Anti-tumor effect by itself [1] | Fold less potent than (R)-trichostatin A [2]
1 | Nc1ncn([C@H]2C[C@H](O)[C@@H](CO)O2)c(=O)n1 [decitabine] | no anti-tumor effect | 
2 | CC(C=CC(=O)NO)=C[C@H](C)C(=O)c1ccc(N(C)C)cc1 [(S)-isomer] |  | 70 fold
